Results on four compounds are retold here after paper PMC7305236, “The atypical chemokine receptor ACKR3/CXCR7 is a broad-spectrum scavenger for opioid peptides” (Nature Communications, 2020).

Where two headings read alike, the source gives them in different places. Starred links: 1 amine or outer side, 2 acyl side, 3 side chain; linkers in the order of their positions; H or OH if unused. Non-standard residues stand in square brackets, D forms with d. Residues, ends and D or L forms follow the SMILES beside them. X1 = N[C@@H](Cc1ccccc1)CN(CC(=O)[*:2])[*:1]

Experiment in all cases: Figure S2a opioid peptide screen on chemokine receptors
What all share (type): cell-based
Common to all, as to parameters: dose or concentration left out as unconfirmed

Test [1] has as its target T1, CXCR2 (Homo sapiens, UniProt P25025).
T1 construct: expressed in transfected cells
T1 sequence (P25025 1-360): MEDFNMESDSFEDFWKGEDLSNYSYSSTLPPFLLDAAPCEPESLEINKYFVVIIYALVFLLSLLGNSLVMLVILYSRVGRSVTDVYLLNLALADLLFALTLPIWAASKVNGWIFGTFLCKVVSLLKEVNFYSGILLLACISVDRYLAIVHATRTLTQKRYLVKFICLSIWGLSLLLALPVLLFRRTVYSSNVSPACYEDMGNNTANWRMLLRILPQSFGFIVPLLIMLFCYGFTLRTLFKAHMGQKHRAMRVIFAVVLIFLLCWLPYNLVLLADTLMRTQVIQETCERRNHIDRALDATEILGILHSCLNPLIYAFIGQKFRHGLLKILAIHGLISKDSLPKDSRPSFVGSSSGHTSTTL

The target in test [2] is T2, CCR1 (Homo sapiens, UniProt P32246).
T2 construct: expressed in transfected cells
T2 sequence (P32246 1-355): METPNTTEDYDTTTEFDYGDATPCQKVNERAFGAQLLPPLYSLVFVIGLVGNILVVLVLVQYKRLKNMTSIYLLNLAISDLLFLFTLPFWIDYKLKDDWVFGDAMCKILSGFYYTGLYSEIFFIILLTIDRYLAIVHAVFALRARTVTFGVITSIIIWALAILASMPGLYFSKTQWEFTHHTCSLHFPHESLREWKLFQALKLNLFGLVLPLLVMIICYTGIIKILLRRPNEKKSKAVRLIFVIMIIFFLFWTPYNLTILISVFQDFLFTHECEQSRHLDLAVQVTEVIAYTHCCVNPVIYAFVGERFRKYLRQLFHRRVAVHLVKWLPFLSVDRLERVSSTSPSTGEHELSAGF

For test [3], the target named is T3, XCR1 (Homo sapiens, UniProt P46094).
T3 construct: expressed in transfected cells
T3 sequence (P46094 1-333): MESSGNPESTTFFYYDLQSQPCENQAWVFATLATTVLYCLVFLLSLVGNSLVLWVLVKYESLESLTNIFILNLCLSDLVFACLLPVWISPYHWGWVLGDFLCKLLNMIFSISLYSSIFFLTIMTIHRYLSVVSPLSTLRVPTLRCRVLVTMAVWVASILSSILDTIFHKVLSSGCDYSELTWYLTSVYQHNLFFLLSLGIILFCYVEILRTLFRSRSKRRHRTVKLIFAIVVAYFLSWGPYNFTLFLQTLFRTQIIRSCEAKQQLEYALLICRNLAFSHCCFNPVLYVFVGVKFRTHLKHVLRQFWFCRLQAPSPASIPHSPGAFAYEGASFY

Test [4] deals with T4, CXCR3B (Homo sapiens, UniProt P49682).
T4 construct: expressed in transfected cells; host or cells: U87 cells
T4 sequence (P49682 1-415 isoform P49682-2): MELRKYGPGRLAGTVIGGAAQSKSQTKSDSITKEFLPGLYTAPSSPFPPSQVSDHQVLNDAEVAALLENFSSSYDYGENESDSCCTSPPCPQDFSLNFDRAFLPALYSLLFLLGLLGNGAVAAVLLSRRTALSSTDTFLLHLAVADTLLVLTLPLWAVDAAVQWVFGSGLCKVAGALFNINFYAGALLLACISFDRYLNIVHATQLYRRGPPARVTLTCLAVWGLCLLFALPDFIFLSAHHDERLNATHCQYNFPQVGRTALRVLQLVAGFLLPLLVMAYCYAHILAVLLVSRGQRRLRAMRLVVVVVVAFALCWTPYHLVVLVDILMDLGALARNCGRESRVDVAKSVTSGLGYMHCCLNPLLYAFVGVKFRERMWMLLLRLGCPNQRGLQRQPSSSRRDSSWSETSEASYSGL

The target in test [5] is T5, ACKR2 (Homo sapiens, UniProt O00590).
T5 construct: expressed in transfected cells; host or cells: U87 cells (human glioblastoma)
T5 sequence (O00590 1-384): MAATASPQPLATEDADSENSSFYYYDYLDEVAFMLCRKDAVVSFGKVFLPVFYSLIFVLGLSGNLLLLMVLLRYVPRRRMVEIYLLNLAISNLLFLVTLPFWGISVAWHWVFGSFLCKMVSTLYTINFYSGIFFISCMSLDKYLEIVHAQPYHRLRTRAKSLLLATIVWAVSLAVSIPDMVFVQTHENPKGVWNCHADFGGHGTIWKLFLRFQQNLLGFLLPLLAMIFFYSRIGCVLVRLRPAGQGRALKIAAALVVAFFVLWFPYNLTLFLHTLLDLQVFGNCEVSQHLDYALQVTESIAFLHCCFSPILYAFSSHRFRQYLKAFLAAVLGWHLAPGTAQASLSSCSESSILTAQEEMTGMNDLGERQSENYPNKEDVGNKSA

Test [6] has as its target T6, CXCR3A (Homo sapiens, UniProt P49682).
T6 construct: expressed in transfected cells; host or cells: U87 cells
T6 sequence (P49682 1-368): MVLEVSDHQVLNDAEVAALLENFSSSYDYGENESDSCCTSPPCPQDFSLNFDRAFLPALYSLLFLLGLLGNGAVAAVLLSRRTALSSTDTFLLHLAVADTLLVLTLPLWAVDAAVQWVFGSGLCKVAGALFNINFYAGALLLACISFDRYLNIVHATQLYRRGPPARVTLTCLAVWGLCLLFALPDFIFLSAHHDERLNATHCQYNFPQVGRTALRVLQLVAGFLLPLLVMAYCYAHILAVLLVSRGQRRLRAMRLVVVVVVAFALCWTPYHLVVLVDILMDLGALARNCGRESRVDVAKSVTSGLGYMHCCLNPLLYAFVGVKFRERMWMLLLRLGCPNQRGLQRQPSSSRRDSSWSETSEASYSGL

The target of test [7] is T7, CCR5 (Homo sapiens, UniProt P51681).
T7 construct: expressed in transfected cells

[8] abbreviates: replicate 1, read-out: CXCR2 activity, ctrl+ = 100.
Setting [9] is: replicate 2, read-out: CXCR2 activity, ctrl+ = 100.
Setting [10] is: replicate 3, read-out: CXCR2 activity, ctrl+ = 100.
The mark [11] stands for this setting: replicate 1, read-out: CCR1 activity, ctrl+ = 100.
Where [12] appears, read: replicate 2, read-out: CCR1 activity, ctrl+ = 100.
Setting [13] is: replicate 3, read-out: CCR1 activity, ctrl+ = 100.
The mark [14] stands for this setting: replicate 1, read-out: XCR1 activity, ctrl+ = 100.
The mark [15] stands for this setting: replicate 2, read-out: XCR1 activity, ctrl+ = 100.
The mark [16] stands for this setting: replicate 3, read-out: XCR1 activity, ctrl+ = 100.
The mark [17] stands for this setting: replicate 1, read-out: CXCR3B activity, ctrl+ = 100.
[18] abbreviates: replicate 2, read-out: CXCR3B activity, ctrl+ = 100.
Where [19] appears, read: replicate 3, read-out: CXCR3B activity, ctrl+ = 100.
The mark [20] stands for this setting: replicate 1, read-out: ACKR2 activity, ctrl+ = 100.
The mark [21] stands for this setting: replicate 2, read-out: ACKR2 activity, ctrl+ = 100.
Setting [22] is: replicate 3, read-out: ACKR2 activity, ctrl+ = 100.
The mark [23] stands for this setting: replicate 1, read-out: CXCR3A activity, ctrl+ = 100.
[24] abbreviates: replicate 2, read-out: CXCR3A activity, ctrl+ = 100.
Setting [25] is: replicate 3, read-out: CXCR3A activity, ctrl+ = 100.
Setting [26] is: replicate 1, read-out: CCR5 activity, ctrl+ = 100.
Where [27] appears, read: replicate 2, read-out: CCR5 activity, ctrl+ = 100.
The mark [28] stands for this setting: replicate 3, read-out: CCR5 activity, ctrl+ = 100.

T7 sequence (P51681 whole entry): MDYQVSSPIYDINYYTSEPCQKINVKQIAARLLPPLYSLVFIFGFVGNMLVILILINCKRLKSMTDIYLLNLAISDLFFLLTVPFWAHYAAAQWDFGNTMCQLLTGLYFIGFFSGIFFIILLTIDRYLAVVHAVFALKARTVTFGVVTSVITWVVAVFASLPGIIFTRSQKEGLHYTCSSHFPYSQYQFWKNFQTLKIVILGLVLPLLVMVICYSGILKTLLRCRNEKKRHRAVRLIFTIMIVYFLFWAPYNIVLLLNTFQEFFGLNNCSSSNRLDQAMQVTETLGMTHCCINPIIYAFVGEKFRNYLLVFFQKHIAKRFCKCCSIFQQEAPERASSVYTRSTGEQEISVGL

As to `CC[C@H](C)[C@H](NC(=O)[C@H](CCCNC(=N)N)NC(=O)[C@H](CCCNC(=N)N)NC(=O)[C@H](CC(C)C)NC(=O)[C@H](Cc1ccccc1)NC(=O)CNC(=O)CNC(=O)[C@@H](N)Cc1ccc(O)cc1)C(=O)N[C@@H](CCCNC(=N)N)C(=O)N1CCC[C@H]1C(=O)N[C@@H](CCCCN)C(=O)N[C@@H](CC(C)C)C(=O)N[C@@H](CCCCN)C(=O)N[C@@H](Cc1c[nH]c2ccccc12)C(=O)N[C@@H](CC(=O)O)C(=O)N[C@@H](CC(N)=O)C(=O)N[C@@H](CCC(N)=O)C(=O)O` [Dynorphin A], the activation in test [1] (setting [8]) is -9.63%; in test [1] (setting [9]), -9.59%; in test [1] (setting [10]), 0.355%; in test [2] (setting [11]) it was -16.7%; in test [2] (setting [12]) it was 4.28%; in test [2] (setting [13]) it was 6.56%. Besides, the activation in test [3] (setting [14]) is 4.69%; in test [3] (setting [15]) it was 7.1%; in test [3] (setting [16]), 11%; in test [4] (setting [17]) it was -2.77%; in test [4] (setting [18]), 1.06%; in test [4] (setting [19]) it was -1.99%. Further, the activation in test [5] (setting [20]) is 15.1%; in test [5] (setting [21]), -26%; in test [5] (setting [22]), 2.73%; in test [6] (setting [23]), -4.75%; in test [6] (setting [24]), -3.36%; in test [6] (setting [25]), 7.92%. Moreover, the activation in test [7] (setting [26]) was 2.19%; in test [7] (setting [27]), -1.33%; in test [7] (setting [28]), 2.35%.

`CC(C)C[C@H](NC(=O)[C@H](Cc1ccccc1)NC(=O)CNC(=O)CNC(=O)[C@@H](N)Cc1ccc(O)cc1)C(=O)N[C@@H](CCCN=C(N)N)C(=O)N[C@@H](CCCN=C(N)N)C(=O)N[C@@H](CCC(N)=O)C(=O)N[C@@H](Cc1ccccc1)C(=O)N[C@@H](CCCCN)C(=O)N[C@H](C(=O)N[C@H](C(=O)N[C@H](C(=O)O)[C@@H](C)O)C(C)C)C(C)C` [Dynorphin B]: the activation in test [1] (setting [8]) was 0.415%; in test [1] (setting [9]) it was -10%; in test [1] (setting [10]) it was 5.58%; in test [2] (setting [11]), -23.7%; in test [2] (setting [12]), -13.7%; in test [2] (setting [13]), 27.5%. Besides, the activation was -1.79% in test [3] (setting [14]); 0.791% in test [3] (setting [15]); 9.32% in test [3] (setting [16]); -3.84% in test [4] (setting [17]); -0.0101% in test [4] (setting [18]); 0.918% in test [4] (setting [19]). Besides, the activation in test [5] (setting [20]) was -36.9%; in test [5] (setting [21]), -27.9%; in test [5] (setting [22]), -3.73%; in test [6] (setting [23]), -2.8%; in test [6] (setting [24]), -4.87%; in test [6] (setting [25]), -1.97%. The activation turned out to be 0.97% in test [7] (setting [26]), 0.0962% in test [7] (setting [27]) and 1.82% in test [7] (setting [28]).

With `NC(=O)[C@H](Cc1ccccc1)NC(=O)[C@H](Cc1c[nH]c2ccccc12)NC(=O)[C@@H]1CCCN1C(=O)[C@@H](N)Cc1ccc(O)cc1` [Endomorphin-1], the activation in test [1] (setting [8]) is 0.676%; in test [1] (setting [9]), -3.23%; in test [2] (setting [11]), 3.57%; in test [2] (setting [12]) it was -19.2%; in test [3] (setting [14]), 4.23%; in test [3] (setting [15]), 6.11%. The activation in test [4] (setting [17]) is -0.0115%; in test [4] (setting [18]), 13%; in test [5] (setting [20]) it was -6%; in test [5] (setting [21]), 11.5%; in test [6] (setting [23]), 3.34%; in test [6] (setting [24]), -3.63%. Besides, the activation was 0.726% in test [7] (setting [26]) and -0.866% in test [7] (setting [27]).

`C[C@H](NC(=O)CNC(=O)[C@@H](NC(=O)[C@H](Cc1ccccc1)NC(=O)CNC(=O)CNC[C@@H](N)Cc1ccccc1)[C@@H](C)O)C(=O)N[C@@H](CCCNC(=N)N)C(=O)N[C@@H](CCCCN)C(=O)N[C@@H](CO)C(=O)N[C@@H](C)C(=O)N[C@@H](CCCNC(=N)N)C(=O)N[C@@H](CCCCN)C(N)=O` [FG Nociceptin 1-13] (H-[X1]GFTGARKSARK-NH2): the activation is -5.21% in test [1] (setting [8]); -6.16% in test [1] (setting [9]); -0.318% in test [1] (setting [10]); 5.65% in test [2] (setting [11]); -10.1% in test [2] (setting [12]); -16.6% in test [2] (setting [13]). In addition, the activation in test [3] (setting [14]) was 0.7%; in test [3] (setting [15]), 1.1%; in test [3] (setting [16]), 16.8%; in test [4] (setting [17]) it was -0.717%; in test [4] (setting [18]) it was 1.26%; in test [4] (setting [19]), 8.05%. Besides, the activation is -51.1% in test [5] (setting [20]); 36.5% in test [5] (setting [21]); 2.35% in test [5] (setting [22]); 2.13% in test [6] (setting [23]); -1.45% in test [6] (setting [24]); -3.37% in test [6] (setting [25]). Further, the activation in test [7] (setting [26]) was -0.325%; in test [7] (setting [27]), 0.224%; in test [7] (setting [28]) it was 0.582%.
